The assay concerns T1, TePeNMT (TeMT1).
T1 construct: N-terminal His-tag, codon optimized synthetic gene in pET30a(+) NotI/XhoI, E. coli BL21(DE3), Ni-NTA purified; no chloroplast transit peptide predicted
In words: Michaelis-Menten kinetics, LC-MS/MS detection of product vobasine. Type of assay: biochemical, Tabernaemontana elegans. Conditions: 50 μM S-adenosylmethionine (saturating), 20 mM Tris pH 7.5, 30 °C, 5 min. An excerpt: Michaelis-Menten kinetics, LC-MS/MS detection of product vobasine on TePeNMT (TeMT1)

As a reminder, the Km is the concentration of substrate that gives half-maximal velocity. Take `C/C=C1/CN[C@H]2Cc3c([nH]c4ccccc34)C(=O)C[C@@H]1[C@@H]2C(=O)OC` [perivine]: the Km was 1.91 µM.

Source of the values: publication PMC11383786, “Parallel evolution of methyltransferases leads to vobasine biosynthesis in Tabernaemontana elegans and Catharanthus roseus” (Frontiers in Plant Science, 2024).
